Consider 1 compound from patent US20030208079A1, “Piperidinylaminomethyl trifluoromethyl cyclic ether compounds as substance P antagonists” (Pfizer Inc., priority 1997, published 2003).

The test deals with plasma protein extravasation in the ureter. The test can be described thus: capsaicin-induced plasma extravasation test. In kind it is in vivo. Particulars: 0.03 mg/kg, given orally 1 hour before capsaicin challenge, male guinea pigs. The protocol:
In this test, anti-inflammatory activity is determined as the percent inhibition of plasma protein extravasation in the ureter of pentobarbital-anesthetized (25 mg/kg i.p.) male Hartey guinea pigs (weighing 300-350 g). Plasma extravasation is induced by intraperitoneal injection of capsaicin (30 μM in 0.1 BSA containing buffer, 10 ml/animal) into the animals, which are fasted overnight. The compounds of this invention were dissolved in 0.1% methyl cellulose-water and given orally 1 hour before capsaicin challenge. Evans blue dye (30 mg/kg) was administered intravenously 5 minutes before challenge. The animals were killed 10 minutes after capsaicin injection and both right and left ureter were removed. Tissue dye content was quantitated at 600 nm absorbance after overnight formamide extraction.

As for `COc1cc2c(cc1CN[C@H]1CCCN[C@H]1c1ccccc1)C(C)(C(F)(F)F)OCC2.Cl.Cl` (stereo partly drawn) [Example 3, (2S,3S)-3-(6-Methoxy-1-methyl-1-trifluoromethylisochroman-7-yl)methylamino-2-phenylpiperidine Dihydrochloride], the “percent inhibition of plasma protein extravasation” value was found to be 98%.
